Like-named read-outs stand apart in the source and are kept apart here.
Test: Plasma and tissue distribution in SD rats
Assay type: in vivo
Conditions: for Tissue/Plasma Ratio (AUCinf) / Kp: SD rat; for Kp / AUC(0-t): rat; for Kp: oral, read-out: Tissue/Plasma Ratio (AUCinf); for AUC(0-t): read-out: AUClast; for AUC0-inf: read-out: AUCINF_obs
Description: The following Example describes the methods and data used to evaluate the tissue distribution of TYK2 inhibitors following the administration of either compound 1 or compound 2.
Thirty (30, 15/sex) SD rats supplied by Beijing Vital River Laboratory Animal Technology Co., Ltd. were used in this study. The animals were confirmed to be healthy before being assigned to the study. The room (s) was controlled and monitored for relative humidity (targeted mean range 40% to 70%) and temperature (targeted mean range 20° C. to 26° C.) with 15 or above air changes/hour. The room was on a 12-hour light/dark cycle except when interruptions were necessitated by study activities. Fresh drinking water (reverses osmosis) was available to all animals, ad libitum. Certified animal diet from certified vendor was available to all animals, ad libitum.
Animals were weighed prior to dose administration to calculate the actual dose volume. The body weights were in the range from 245.39 to 276.33 g for males and 182.29 to 215.69 g for females on the first dosing day. The animals in Groups 1 and 2 received a single oral gavage administration of test compound 1. Cage-side observations for the general health condition and appearance of the animal were performed before and after dosing and at each time point of sample collection. Unusual observations were recorded throughout the duration of the study.
The vehicle was 0.5% methyl cellulose (4000 cps) in water. The formulation was prepared according to the following steps. Group 1: 25.95 mg of compound 1 was weighed into a glass vial. 5000 μL of vehicle was added into the vial and stirred for 30 min at 1700 rpm to get a homogenous opaque suspension. 5000 μL of vehicle was added into the vial and stirred for 10 min at 1700 rpm to get a homogenous opaque suspension. 5000 μL+5000 μL+5000 μL+924 μL of vehicle was added into the vial and stirred for 10 min at 1700 rpm to get a homogenous opaque suspension. Group 2: 81.66 mg of compound 1 was weighed into a glass vial. 5000 μL of vehicle was added into the vial and stirred for 30 min at 1700 rpm to get a homogenous opaque suspension. 5000 μL of vehicle was added into the vial and stirred for 10 min at 1700 rpm to get a homogenous opaque suspension. 10 mL+10 mL+10 mL+20 mL+10 mL+10 mL+1580 μL of vehicle was added into the vial and stirred for 10 min at 1700 rpm to get a homogenous opaque suspension.
Blood (about 0.2 mL) was collected at each time point via jugular vein puncture from each study animal. The actual time for each sample collection was recorded. The acceptable deviations on sampling time were ±1 min for the time points pre-dose through 1 hour post-dose, and +5% of the nominal time for time points after 1 hour post-dose.
All blood samples were transferred into commercial tubes containing K2-EDTA. After blood was collected, the samples were placed on wet ice and processed for plasma within 60 minutes of collection by centrifugation at approximately 4° C., 3200×g for 10 minutes, and then quickly frozen over dry ice and kept at −60° C. or lower until LC-MS/MS analysis.
Following terminal blood sample collection, animals were conducted CO2 euthanasia, the chest and abdominal cavities were opened carefully lengthwise using scissors to expose the internal organs in preparation of tissue perfusion. A needle was used to puncture a small hole into the left ventricle of the heart, and then clamped with a hemostat. […] Fluid (cold 1×PBS) was infused until the liver pales (typically 2-3 minutes). Following perfusion, 14 kinds of tissues (spleen, bone marrow, adipose, brain, heart, kidney, liver, lung, skin, small intestine, large intestine, eye, gonads, and bladder) were collected from each animal, respectively.
Each tissue was weighed and homogenized on wet ice using homogenizing buffer (MeOH/15 mM PBS 1:2) at the ratio of 1:9 (1 g tissue with 9 mL buffer). The tissue homogenate was kept at −60° C. or lower until LC-MS/MS analysis. […]

[1] = female, Sprague-Dawley (SD), large intestine, F SD rat, L. Intestine
[2] = female, Sprague-Dawley (SD), F SD rat, Bone Marrow
[3] = female, Sprague-Dawley (SD), F SD rat, Brain
[4] = female, Sprague-Dawley (SD), F SD rat, Eye
[5] = female, Sprague-Dawley (SD), F SD rat, Heart
[6] = female, Sprague-Dawley (SD), F SD rat, Kidney
[7] = female, Sprague-Dawley, F SD rat, Adipose
[8] = female, Sprague-Dawley, F SD rat, Bladder
[9] = female, Sprague-Dawley, F SD rat, Spleen
[10] = female, small intestine, F SD rat, S. Intestine
[11] = male, Sprague-Dawley (SD), large intestine, M SD rat, L. Intestine
[12] = male, Sprague-Dawley (SD), M SD rat, Brain
[13] = male, Sprague-Dawley (SD), M SD rat, Eye
[14] = male, Sprague-Dawley (SD), M SD rat, Heart
[15] = male, Sprague-Dawley (SD), M SD rat, Kidney
[16] = male, Sprague-Dawley, M SD rat, Adipose
[17] = male, Sprague-Dawley, M SD rat, Bladder
[18] = male, Sprague-Dawley, M SD rat, Skin
[19] = male, Sprague-Dawley, M SD rat, Spleen
[20] = male, Sprague-Dawley, M SD rat, Testis
[21] = male, small intestine, M SD rat, S. Intestine

**Q.** Which results are given for `C[C@@H](c1ccc(Nc2cc(Nc3ncc(F)cc3S(C)(=O)=O)ncn2)nc1)N1CC2(COC2)C1` [Compound 2, (S)—N^4-(5-(1-(2-oxa-6-azaspiro[3.3]heptan-6-yl)ethyl)pyridin-2-yl)-N^6-(5-fluoro-3-(methylsulfonyl)pyridin-2-yl)pyrimidine-4,6-diamine]?
**A.** HL_Lambda_z (F SD rat, Adipose): 2.78 h; HL_Lambda_z (F SD rat, Bladder): 2.37 h; HL_Lambda_z (F SD rat, Bone Marrow): 2.26 h; HL_Lambda_z (F SD rat, Eye): 6.23 h; HL_Lambda_z (F SD rat, Kidney): 2.34 h; HL_Lambda_z (F SD rat, L. Intestine): 4.97 h; HL_Lambda_z (F SD rat, Liver): 2.31 h; HL_Lambda_z (F SD rat, Lung): 2.26 h; HL_Lambda_z (F SD rat, Plasma): 3.20 h; HL_Lambda_z (F SD rat, S. Intestine): 2.06 h; HL_Lambda_z (F SD rat, Skin): 5.71 h; HL_Lambda_z (F SD rat, Spleen): 2.29 h; HL_Lambda_z (M SD rat, Bladder): 2.13 h; HL_Lambda_z (M SD rat, Kidney): 3.28 h; HL_Lambda_z (M SD rat, Plasma): 2.21 h; HL_Lambda_z (M SD rat, S. Intestine): 2.05 h; HL_Lambda_z (M SD rat, Skin): 2.43 h; HL_Lambda_z (M SD rat, Spleen): 2.24 h; Tissue/Plasma Ratio (AUCinf) (Kidney): 13; Tissue/Plasma Ratio (AUCinf) (Large Intestine): 23; Kp (Sprague-Dawley (SD), bone marrow / plasma, Bone Marrow): 9.6; Kp (Sprague-Dawley, adipose, Adipose): 4.5; Kp (Sprague-Dawley, bladder, Bladder): 8.7; Kp (Sprague-Dawley, eye, Eye): 1.2; Kp (Sprague-Dawley, kidney, Kidney): ~13; Kp (Sprague-Dawley, large intestine, Large Intestine): ~23; Kp (Sprague-Dawley, liver, Liver): 8.7; Kp (Sprague-Dawley, lung, Lung): 7.1; Kp (Sprague-Dawley, skin, Skin): 2.5; Kp (Sprague-Dawley, small intestine, Small Intestine): 27; Kp (Sprague-Dawley, spleen, Spleen): 12; AUC(0-t) (female, SD, bone marrow, F SD rat, Bone Marrow): 38700 ng·h/mL; AUC(0-t) (female, SD, lung, F SD rat, Lung): 29400 ng·h/mL; AUC(0-t) (female, SD, ovaries, F SD rat, Ovaries): 4360 ng·h/mL; AUC(0-t) (female, SD, plasma, F SD rat, Plasma): 4120 ng·h/mL; AUC(0-t) (female, SD, skin, F SD rat, Skin): 8430 ng·h/mL; AUC(0-t) (female, SD, small intestine, F SD rat, S. Intestine): 110000 ng·h/mL; Tmax [1]: 120 min; AUC(0-t) (female, Sprague-Dawley (SD), eye, F SD rat, Eye): 4880 ng·h/mL; AUC(0-t) (female, Sprague-Dawley (SD), heart, F SD rat, Heart): 8990 ng·h/mL; AUC(0-t) (female, Sprague-Dawley (SD), kidney, F SD rat, Kidney): 51800 ng·h/mL; AUC(0-t) [1]: 95000 ng·h/mL; Cmax [2]: 3080 ng/mL; Tmax [2]: 30 min; AUC0-inf [2]: 38300 ng·h/mL; Cmax [3]: 104 ng/mL; Tmax [3]: 30 min; Cmax [4]: 700 ng/mL; Tmax [4]: 30 min; AUC0-inf [4]: 4910 ng·h/mL; Cmax [5]: 2500 ng/mL; Tmax [5]: 30 min; Cmax [6]: 9870 ng/mL; Tmax [6]: 30 min; AUC0-inf [6]: 51800 ng·h/mL; AUC(0-t) (female, Sprague-Dawley, adipose, F SD rat, Adipose): 18700 ng·h/mL; AUC(0-t) (female, Sprague-Dawley, bladder, F SD rat, Bladder): 18600 ng·h/mL; AUC(0-t) (female, Sprague-Dawley, spleen, F SD rat, Spleen): 43400 ng·h/mL; Cmax [7]: 4310 ng/mL; Tmax [7]: 30 min; Cmax [8]: 2650 ng/mL; Tmax [8]: 30 min; AUC0-inf [8]: 18600 ng·h/mL; Cmax [9]: 12500 ng/mL; Tmax [9]: 30 min; Cmax [10]: 24800 ng/mL; Tmax [10]: 30 min; AUC0-inf [10]: 130000 ng·h/mL; Tmax (female, F SD rat, Liver): 30 min; AUC0-inf (female, F SD rat, Liver): 35900 ng·h/mL; Cmax (female, F SD rat, Lung): 3070 ng/mL; Tmax (female, F SD rat, Lung): 30 min; AUC0-inf (female, F SD rat, Lung): 29500 ng·h/mL; Cmax (female, F SD rat, Ovaries): 1940 ng/mL; Tmax (female, F SD rat, Ovaries): 30 min; Cmax (female, F SD rat, Plasma): 625 ng/mL; Tmax (female, F SD rat, Plasma): 480 min; AUC0-inf (female, F SD rat, Plasma): 4140 ng·h/mL; Cmax (female, F SD rat, Skin): 1180 ng/mL; Tmax (female, F SD rat, Skin): 30 min; AUC0-inf (female, F SD rat, Skin): 8450 ng·h/mL; AUC(0-t) (male, SD, liver, M SD rat, Liver): 14700 ng·h/mL; AUC(0-t) (male, SD, lung, M SD rat, Lung): 18200 ng·h/mL; AUC(0-t) (male, SD, skin, M SD rat, Skin): 7820 ng·h/mL; Cmax [11]: 7320 ng/mL; Tmax [11]: 480 min; AUC(0-t) (male, Sprague-Dawley (SD), bone marrow, M SD rat, Bone Marrow): 19600 ng·h/mL; AUC(0-t) (male, Sprague-Dawley (SD), brain, M SD rat, Brain): 273 ng·h/mL; AUC(0-t) (male, Sprague-Dawley (SD), heart, M SD rat, Heart): 2880 ng·h/mL; AUC(0-t) (male, Sprague-Dawley (SD), kidney, M SD rat, Kidney): 32600 ng·h/mL; Tmax (male, Sprague-Dawley (SD), M SD rat, Bone Marrow): 30 min; Cmax [12]: 68.9 ng/mL; Tmax [12]: 30 min; Cmax [13]: 535 ng/mL; Tmax [13]: 156 min; Cmax [14]: 2520 ng/mL; Tmax [14]: 30 min; Cmax [15]: 9620 ng/mL; Tmax [15]: 30 min; AUC0-inf [15]: 32600 ng·h/mL; Cmax (male, Sprague-Dawley (SD), M SD rat, Liver): 6340 ng/mL; AUC(0-t) (male, Sprague-Dawley, adipose, M SD rat, Adipose): 12200 ng·h/mL; AUC(0-t) (male, Sprague-Dawley, bladder, M SD rat, Bladder): 36200 ng·h/mL; AUC(0-t) (male, Sprague-Dawley, spleen, M SD rat, Spleen): 25700 ng·h/mL; AUC(0-t) (male, Sprague-Dawley, testis, M SD rat, Testis): 5090 ng·h/mL; Cmax [16]: 3900 ng/mL; Tmax [16]: 30 min; Cmax [17]: 6820 ng/mL; Tmax [17]: 33.6 min; AUC0-inf [17]: 36300 ng·h/mL; Tmax [18]: 30 min; AUC0-inf [18]: 8020 ng·h/mL; Cmax [19]: 6860 ng/mL; Tmax [19]: 30 min; Cmax [20]: 318 ng/mL; Tmax [20]: 480 min; Cmax [21]: 28900 ng/mL; Tmax [21]: 30 min; Cmax (male, M SD rat, Bone Marrow): 4530 ng/mL; Tmax (male, M SD rat, Liver): 30 min; Cmax (male, M SD rat, Lung): 4410 ng/mL; Tmax (male, M SD rat, Lung): 30 min; Cmax (male, M SD rat, Plasma): 509 ng/mL; Tmax (male, M SD rat, Plasma): 180 min; AUC0-inf (male, M SD rat, Plasma): 2680 ng·h/mL; Cmax (male, M SD rat, Skin): 1460 ng/mL

Source: patent publication US20260048051A1, “TREATMENT OF INFLAMMATORY BOWEL DISEASE” (Atomwise Inc., priority 2024, published 2026)
